Experimental data: publication PMC3978604 (Arthritis Research & Therapy, 2013)
Where two headings read alike, the source gives them in different places.

Experiments:
SYK = SYK (Homo sapiens, UniProt P43405); test: Whole blood assays of SYK inhibition; type: cell-based
[1] = system: panel of 392 wild-type (non-mutant) protein kinases; test: KINOMEscan ATP binding site competition assay, kinase panel selectivity; settings: including JAK and vascular endothelial growth factor receptor; data not shown
Ramos B-cell line = test: cells; settings: Homo sapiens, read-out: IC50, anti-IgM-activated calcium flux
Method: Baseline fluorescence was recorded for about 20 seconds followed by stimulation with mouse anti-human IgM (10 μg/ml, clone M2E6; Antibody Solutions Inc., Mountain View, CA, USA) for Ramos cells or mouse anti-human CD3 (10 μg/ml; BD Biosciences) for Jurkat cells, and the maximal fluorescent counts in each well were recorded.

Jurkat T-cell line = test: Anti-CD3-induced calcium flux (FLIPR); type: cell-based; settings: Homo sapiens, read-out: IC50, T-cell receptor (anti-CD3)-induced calcium flux
human PBMCs = test: cells; settings: PBMC, read-out: IC50, BCR-dependent cell surface CD69 expression in CD20+ B cells
Method: (§1) The samples were stained with PE mouse anti-human CD20 and APC mouse anti-human CD69. The percentage of activated (CD69^hi) B cells was determined using unstimulated (negative control) and stimulated (positive control) samples as references.

human whole blood = test: cells; settings: B-cell, read-out: IC50, BCR-dependent cell surface CD69 expression in CD20+ B cells
Method: as §1

human monocytes = test: cells; settings: Monocyte
Method: Peripheral blood mononuclear cells (PBMCs) were isolated by centrifugation from heparinized blood in a Vacutainer CPT Cell Preparation Tube (BD Biosciences). PBMCs were cultured for 1 to 2 hours to allow monocytes to adhere, and nonadherent cells were washed away. The monocytes were stimulated with human IgG-coated (Jackson Immunology, West Grove, PA, USA) copolymer microsphere beads (Thermo Scientific, Fremont, CA, USA) or lipopolysaccharide (1 ng/ml; Sigma-Aldrich) for 4 hours. TNFα levels in supernatants were determined by enzyme-linked immunosorbent assay kits (BD Biosciences).

human mast cells = test: cells; settings: Mast cell, read-out: IC50, IgE/antigen-induced histamine release
Method: The method has been reported previously by our group. […] For measuring histamine release, cells were sensitized with 0.1 μg/ml anti-4-hydroxy-3-nitrophenylacetyl hapten IgE (Serotec, Raleigh, NC, USA) overnight, and then cross-linked with 1 μg/ml NP(30)-BSA (Biosearch Technologies, Novato, CA, USA) for 30 minutes. Supernatants were collected and assayed for histamine release using a histamine enzyme immunoassay (Oxford Biomedical Research, Rochester Hills, MI, USA). The percentage of histamine release was calculated by comparing various treatments with positive control.

[2] = system: human PBMCs, CD3+ T cells; test: IL-2-induced STAT5 phosphorylation in CD3+ T cells (flow cytometry); type: cell-based; settings: for effect on phosphorylation of STAT5: at 1 μM, IL-2 stimulated CD3+ T cells
Method: (§2) Human PBMCs were pre-incubated with compound for 30 minutes followed by 20 minutes stimulation with IL-2 (100 ng/ml) for signal transducers and activators of transcription 5 (STAT5) phosphorylation or IFNγ (100 ng/ml) for STAT1 phosphorylation.

[3] = system: human PBMCs, CD14+ monocytes; test: IFNγ-induced STAT1 phosphorylation in CD14+ monocytes (flow cytometry); type: cell-based; settings: IFNγ-treated CD14+ monocytes; except at the highest concentration tested (10 μM)
Method: as §2

[4] = system: mouse bone marrow macrophages; test: RANK-L/M-CSF mediated osteoclastogenesis, TRAP+ multinuclear cells; type: cell-based; settings: in the presence of more than 0.4 μM
Method: Bone marrow cells were obtained from C57BL/6 mouse tibiae and suspended in culture medium supplemented with monocyte colony-stimulating factor (100 ng/ml) for 16 hours. […] The cells were stained using a tartrate-resistant acid phosphate (TRAP) staining kit (Sigma, St Louis, MO, USA). TRAP^+ multinuclear cells were counted for each well under a microscope.

human B cells = test: TLR9-mediated plasmablast differentiation (ODN2006 + IL-2, 6 days); type: cell-based
Method: Human B cells were differentiated with ODN2006 (50 nM) and IL-2 (10 ng/ml) for 6 days. The differentiated cells were stained with V450 anti-CD38, FITC anti-CD20, PE anti-CD19 and APC intracellular IgM. The plasmablasts were identified as CD19^+CD38^+CD20^–IgM^+ cells. The production of IgG and IgM was quantitated by AlphaLISA.

[5] = system: human plasmacytoid dendritic cells; test: TLR9-mediated pDC activation (ODN2216, 2 days); type: cell-based; settings: human pDCs, concentration-dependent
Method: Human plasmacytoid dendritic cells (pDCs) were isolated by negative selection from PBMCs with the human pDC Isolation Kit (Miltenyi Biotec, Auburn, CA, USA). The purity was confirmed with CD303 (BDCA-2; Miltenyi Biotec) staining and stimulated with ODN2216 (1 μM) for 2 days. The production of IFNα and TNFα was measured by AlphaLISA.

[6] = Pharmacokinetics after single oral dosing in mouse; type: in vivo; settings: plasma
[7] = system: DBA1/J mice with collagen-induced arthritis; test: Murine collagen-induced arthritis model (mCIA); type: in vivo, mouse
Method: The mCIA model has been reported previously. Briefly, DBA1/J male mice were injected intradermally with 0.1 ml bovine type II collagen (100 μg; Chondrex Inc., Redmond, WA, USA) and complete Freund’s adjuvant (200 μg; Difco, Detroit, MI, USA) followed by second immunization on day 21 with bovine type II collagen and incomplete Freund adjuvant. […] Clinical arthritis scores (1 to 4) of individual paws were assessed and the arthritic index for each mouse was determined by adding the individual scores of all four paws. The level of cytokines in serum was determined by Luminex analysis (Millipore, Billerica, MA, USA). Hind paws from CIA mice were collected into 10% neutral buffered formalin. After decalcification in 10% formic acid, paws were embedded in paraffin, sectioned at 8 μm and stained with toluidine blue. Inflammation (infiltration of inflammatory cells), pannus, cartilage damage, and bone resorption were scored in a double-blinded fashion by a board-certified pathologist at Boulder BioPATH, Inc. (Boulder, CO, USA) using standard criteria, with 0 being normal and 5 being the most severe.

[8] = system: mouse whole blood B220+ B cells; test: Ex vivo anti-IgD-induced CD69 expression on B220+ B cells in whole blood of dosed CIA mice; settings: 2 and 5 hours post dose
JAK1 = test: KINOMEscan ATP binding site competition assay; settings: 1 μM compound; truncated recombinant JAK1
JAK3 = JAK3 (Homo sapiens, UniProt P52333); test: KINOMEscan ATP binding site competition assay; settings: 1 μM compound; truncated recombinant JAK3
JAK3, sequence (P52333 811-1124 limits assumed): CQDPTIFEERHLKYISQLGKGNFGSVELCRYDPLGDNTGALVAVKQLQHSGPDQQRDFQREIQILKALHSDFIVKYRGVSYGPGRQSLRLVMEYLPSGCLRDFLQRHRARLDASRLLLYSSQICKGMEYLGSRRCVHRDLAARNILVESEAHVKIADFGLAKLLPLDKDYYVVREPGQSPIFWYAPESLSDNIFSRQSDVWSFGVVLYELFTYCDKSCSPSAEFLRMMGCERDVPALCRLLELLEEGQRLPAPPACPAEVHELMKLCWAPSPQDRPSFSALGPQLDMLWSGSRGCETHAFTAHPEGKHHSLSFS

Ramos cells = test: Western blot of anti-IgM induced phosphorylation of BTK, PLCγ2, AKT and ERK; settings: 1 μM pretreatment
Text: The protein phosphorylation was detected with rabbit antibodies of anti-phospho-BTK(Y223) (Epitomics Inc., Burlingame, CA, USA), anti-phospho-PLCγ2(Y1217), anti-phospho-ERK(T202/Y204) or anti-phospho-AKT(S473).

Compound: COc1cc(Nc2ncc(F)c(Nc3ccc4c(n3)N(COP(=O)(O)O)C(=O)C(C)(C)O4)n2)cc(OC)c1OC [R788]
- SYK inhibition in whole blood assays (SYK): relatively weak
- kinase selectivity in the KinaseScan assay [1]: inhibiting one-half of the kinome

Compound: Cc1ccc(Nc2cc(N[C@@H]3CCCC[C@@H]3N)nnc2C(N)=O)nc1C [RO9021, 6-[(1R,2S)-2-amino-cyclohexylamino]-4-(5,6-dimethyl-pyridin-2-ylamino)-pyridazine-3-carboxylic acid amide]
- IC50 (Ramos B-cell line): 78 ± 21 nM
- IC50 (Jurkat T-cell line): 910 ± 270 nM
- IC50 (human PBMCs): 83 nM
- IC50 (human whole blood): 87 nM
- IC50 (human monocytes; 4 h, read-out: IC50, TNFα production induced by crosslinking of FcγR): 63 ± 19 nM
- IC50 (human monocytes; read-out: IC50, TLR4-dependent TNFα production): 2900 ± 900 nM
- IC50 (human mast cells): 22.8 ± 1.7 nM
- IC50 ([2]; Homo sapiens, T-cell, read-out: IC50, IL-2-induced STAT5 phosphorylation): 1320 ± 660 nM
- effect on phosphorylation of STAT5 [2]: no significant effect
- effect on phosphorylation of STAT1 [3]: no effect
- TRAP+ cells [4]: barely detectable
- production of IL-6 in the supernatant (human B cells): reduced
- production of IgG in the supernatant (human B cells): reduced
- production of IgM in the supernatant (human B cells): reduced
- production of IFNα [5]: inhibited
- production of TNFα [5]: inhibited
- AUC ([6]; single oral dose 5 mg/kg): 3.85 µM·h
- Cmax ([6]; single oral dose 5 mg/kg): 0.695 µM
- Tmax ([6]; single oral dose 5 mg/kg): 60 min
- half-life ([6]; single oral dose 5 mg/kg): 260 min
- AUC ([6]; single oral dose 45 mg/kg): 35.8 µM·h
- Cmax ([6]; single oral dose 45 mg/kg): 5.76 µM
- Tmax ([6]; single oral dose 45 mg/kg): 30 min
- half-life ([6]; single oral dose 45 mg/kg): 212 min
- histopathology of hind paws (inflammation, pannus, cartilage damage, bone resorption) ([7]; 5 and 45 mg/kg orally daily for 14 days): vehicle-treated, but not RO9021-treated, mice had severe inflammation and cartilage damage
- arthritis progression, clinical scores ([7]; 5 and 45 mg/kg orally daily for 14 days from day 21, significant in both groups vs vehicle): inhibited arthritis progression in a dose-dependent manner
- serum level of IL-6 ([7]; after 14 days of treatment): markedly reduced
- serum level of KC(CXCL1) ([7]; after 14 days of treatment): markedly reduced
- anti-IgD-induced CD69 expression on B cells (B220+), ex vivo [8]: inhibited
- competition with compound (JAK1) (JAK1): more than 90%
- competition with compound (JAK3) (JAK3): more than 90%
- anti-IgM induced phosphorylation of BTK, PLCγ2, AKT and ERK (Ramos cells): inhibited

Compound: C[C@@H]1CCN(C(=O)CC#N)C[C@@H]1N(C)c1ncnc2[nH]ccc12 [tofacitinib, reference compound]
- effect on phosphorylation of STAT5 [2]: completely blocked
